A short description of series [1]: Pharmacokinetic analysis in STZ-induced diabetes mellitus Wistar rats, single subcutaneous dose, serum ELISA. Conditions: male, rat, sc, STZ diabetic Wistar rats, single dose 5 mg/kg subcutaneous. The format is in vivo. As to the method:
Streptozotocin (STZ), preferentially toxic to pancreatic beta cells, is commonly used to model […] diabetes mellitus (DM) in numerous species, including Wistar rat. 12-14 week-old male Wistar rats (300-380 g body weight) were selected for the study. Rats were randomly distributed to different groups based on ad-lib fed blood glucose and body weight. The diabetes mellitus (DM) was induced in Wister rats by single intraperitoneal injection of streptozotocin at 60 mg/kg STZ (n=6) in both control and test group for two weeks.
Basal glucose levels were recorded for all the animals before injecting STZ. All animals were again evaluated for the elevated blood levels after 15 days of STZ treatment. After the confirmation of high glucose levels animals were treated with single dose (5 mg/kg) of Liraglutide and D-Liraglutide by subcutaneous route.
Blood samples were collected at 0 (Pre-dose), 1, 2, 4, 8, 12, 24, 48, 72, 96, 120 and 144 h, post dose. At each time point, approximately, 0.3 mL of blood was withdrawn through retro orbital plexus under light isoflurane anesthesia in a labeled microfuge tube. All blood samples were centrifuged at 7000 rpm for 5 min at set temperature of 4° C. […]
The ELISA was performed for the quantitative measurement of the Liraglutide in the serum samples using Cloud-Clone Corp. (CEV769Ge 96 Tests) kit. […]
In general terms: An ELISA detects its analyte on a solid surface through an enzyme-linked reagent.

The conditions of series [2]: once-weekly subcutaneous injection, dose of 0.5 or 1 mg; cited from earlier work.

The text below walks through data of patent US20220143150A1 (ENZENE BIOSCIENCES LIMITED, priority 2019, published 2022).

By MRT is commonly meant the average time that molecules of a dose stay in the body. On to `CCCCCCCCCCCCCCCC(=O)N[C@@H](CCC(=O)NCCCC[C@H](NC(=O)[C@H](C)NC(=O)[C@H](C)NC(=O)[C@H](CCC(N)=O)NC(=O)CNC(=O)[C@H](CCC(=O)O)NC(=O)[C@H](CC(C)C)NC(=O)[C@H](Cc1ccc(O)cc1)NC(=O)[C@H](CO)NC(=O)[C@H](CO)NC(=O)[C@@H](NC(=O)[C@H](CC(=O)O)NC(=O)[C@H](CO)NC(=O)[C@@H](NC(=O)[C@H](Cc1ccccc1)NC(=O)[C@@H](NC(=O)CNC(=O)[C@H](CCC(=O)O)NC(=O)[C@H](C)NC(=O)[C@@H](N)Cc1cnc[nH]1)[C@@H](C)O)[C@@H](C)O)C(C)C)C(=O)N[C@@H](CCC(=O)O)C(=O)N[C@@H](Cc1ccccc1)C(=O)N[C@H](C(=O)N[C@@H](C)C(=O)N[C@@H](Cc1c[nH]c2ccccc12)C(=O)N[C@@H](CC(C)C)C(=O)N[C@H](C(=O)N[C@@H](CCCNC(=N)N)C(=O)NCC(=O)N[C@@H](CCCNC(=N)N)C(=O)NCC(=O)O)C(C)C)[C@@H](C)CC)C(=O)O` [Liraglutide], for which, in series [1], the MRT stood at 34.8 h.

By half-life is commonly meant how long it takes for the measured level to halve. For semaglutide, in series [2], the half-life is 170 h and the “time to reach steady state” value is listed as 4-5 weeks.
